Source: the NIST ThermoML archive (doi:10.1021/acs.jced.9b00424)

Assay: xn = mol fraction of the nth substance listed
Conditions: for surface tension liquid-gas: Pendant drop shape; for viscosity: 100 kPa, Concentric cylinders viscometry; for viscosity / mass density: Liquid; for mass density: 101 kPa, Vibrating tube method

CCCCCCCC(=O)O [octanoic acid] + CC(C)[C@@H]1CC[C@@H](C)C[C@H]1O
Conditions	mass density [kg/m3]	surface tension liquid-gas [mN/m]	viscosity [mPa·s]
297.82 K, x2 = 0	–	30.95	–
298 K, x2 = 0.333	–	25.72	–
298.11 K, x2 = 0.5	–	26.67	–
298.15 K, x2 = 0	917.2	–	5.17
298.15 K, x2 = 0.25	914.7	–	7.61
298.15 K, x2 = 0.333	914.1	–	8.81
298.15 K, x2 = 0.5	912.3	–	12.18
298.15 K, x2 = 0.667	910.3	–	17.71
298.15 K, x2 = 0.75	909.3	–	20.82
298.16 K, x2 = 0.25	–	23.32	–
298.2 K, x2 = 0.75	–	23.77	–
298.24 K, x2 = 0.667	–	20.94	–
302.68 K, x2 = 0	–	30.04	–
303.04 K, x2 = 0.5	–	25.67	–
303.15 K, x2 = 0	910.3	–	4.54
303.15 K, x2 = 0.25	908	–	6.46
303.15 K, x2 = 0.333	907.4	–	7.37
303.15 K, x2 = 0.5	905.7	–	9.83
303.15 K, x2 = 0.667	903.7	–	13.65
303.15 K, x2 = 0.75	902.7	–	15.46
303.69 K, x2 = 0.333	–	24.84	–
303.77 K, x2 = 0.667	–	20.53	–
303.85 K, x2 = 0.25	–	22.25	–
303.88 K, x2 = 0.75	–	23	–
307.73 K, x2 = 0.5	–	24.67	–
308.15 K, x2 = 0	903.8	–	4.01
308.15 K, x2 = 0.25	901.7	–	5.54
308.15 K, x2 = 0.333	901.1	–	6.23
308.15 K, x2 = 0.5	899.5	–	8.06
308.15 K, x2 = 0.667	897.6	–	10.73
308.15 K, x2 = 0.75	896.6	–	11.94
308.49 K, x2 = 0	–	28.56	–
308.53 K, x2 = 0.333	–	24.25	–
308.73 K, x2 = 0.25	–	21.65	–
308.75 K, x2 = 0.667	–	20.24	–
308.78 K, x2 = 0.75	–	22.27	–
312.93 K, x2 = 0	–	27.56	–
313.15 K, x2 = 0	897.6	–	3.59
313.15 K, x2 = 0.25	895.6	–	4.81
313.15 K, x2 = 0.333	895.1	–	5.35
313.15 K, x2 = 0.5	893.5	–	6.72
313.15 K, x2 = 0.667	891.7	–	8.62
313.15 K, x2 = 0.75	890.6	–	9.42
313.17 K, x2 = 0.333	–	23.9	–
313.35 K, x2 = 0.5	–	23.58	–
314.11 K, x2 = 0.25	–	21.16	–
314.26 K, x2 = 0.667	–	19.94	–
314.39 K, x2 = 0.75	–	21.81	–
317.8 K, x2 = 0	–	26.06	–
318.12 K, x2 = 0.5	–	22.74	–
318.15 K, x2 = 0	891.7	–	3.2
318.15 K, x2 = 0.25	889.9	–	4.18
318.15 K, x2 = 0.333	889.4	–	4.6
318.15 K, x2 = 0.5	887.9	–	5.63
318.15 K, x2 = 0.667	886.1	–	7
318.15 K, x2 = 0.75	885	–	7.53
318.42 K, x2 = 0.333	–	23.36	–
318.81 K, x2 = 0.667	–	19.7	–
318.88 K, x2 = 0.25	–	20.56	–
318.9 K, x2 = 0.75	–	21.15	–
322.15 K, x2 = 0	–	24.99	–
322.96 K, x2 = 0.333	–	22.93	–
322.97 K, x2 = 0.5	–	21.75	–
323.15 K, x2 = 0	886.2	–	2.88
323.15 K, x2 = 0.25	884.6	–	3.68
323.15 K, x2 = 0.333	884	–	4
323.15 K, x2 = 0.5	882.6	–	4.79
323.15 K, x2 = 0.667	880.9	–	5.78
323.15 K, x2 = 0.75	879.5	–	6.12
323.52 K, x2 = 0.667	–	19.52	–
323.58 K, x2 = 0.25	–	20.1	–
323.61 K, x2 = 0.75	–	20.72	–
327.39 K, x2 = 0	–	24.46	–
328.11 K, x2 = 0.75	–	20.22	–
328.15 K, x2 = 0	880.9	–	2.609
328.15 K, x2 = 0.25	879.5	–	3.25
328.15 K, x2 = 0.333	878.9	–	3.51
328.15 K, x2 = 0.5	877.6	–	4.11
328.15 K, x2 = 0.667	875.9	–	4.83
328.15 K, x2 = 0.75	874.4	–	5.05
328.35 K, x2 = 0.5	–	20.44	–
328.41 K, x2 = 0.333	–	22.47	–
328.48 K, x2 = 0.667	–	19.19	–
328.93 K, x2 = 0.25	–	19.73	–
331.72 K, x2 = 0	–	23.43	–
332.7 K, x2 = 0.75	–	19.65	–
332.78 K, x2 = 0.333	–	21.79	–
332.97 K, x2 = 0.5	–	19.47	–
333.15 K, x2 = 0	876	–	2.372
333.15 K, x2 = 0.25	874.7	–	2.9
333.15 K, x2 = 0.333	874.1	–	3.1
333.15 K, x2 = 0.5	872.9	–	3.56
333.15 K, x2 = 0.667	871.2	–	4.09
333.15 K, x2 = 0.75	869.4	–	4.22
333.27 K, x2 = 0.667	–	18.98	–
333.38 K, x2 = 0.25	–	19.41	–
338.15 K, x2 = 0	871.4	–	2.166
338.15 K, x2 = 0.25	870.1	–	2.595
338.15 K, x2 = 0.333	869.6	–	2.753
338.15 K, x2 = 0.5	868.4	–	3.11
338.15 K, x2 = 0.667	866.7	–	3.49
338.15 K, x2 = 0.75	864.6	–	3.56
343.15 K, x2 = 0	867.1	–	1.985
343.15 K, x2 = 0.25	865.9	–	2.336
343.15 K, x2 = 0.333	865.4	–	2.461
343.15 K, x2 = 0.5	864.3	–	2.732
343.15 K, x2 = 0.667	862.6	–	3.02
343.15 K, x2 = 0.75	860	–	3.04
348.15 K, x2 = 0	863	–	1.826
348.15 K, x2 = 0.25	862	–	2.113
348.15 K, x2 = 0.333	861.5	–	2.212
348.15 K, x2 = 0.5	860.4	–	2.419
348.15 K, x2 = 0.667	858.7	–	2.625
348.15 K, x2 = 0.75	855.7	–	2.635
353.15 K, x2 = 0	859.3	–	1.683
353.15 K, x2 = 0.25	858.3	–	1.921
353.15 K, x2 = 0.333	857.9	–	1.996
353.15 K, x2 = 0.5	856.7	–	2.156
353.15 K, x2 = 0.667	855.1	–	2.301
353.15 K, x2 = 0.75	851.6	–	2.324
